{"source": "patent US20110008469A1", "about": "“ANTIMICROBIAL COMPOSITION AND METHODS AND APPARATUS FOR USE THEREOF” (FLORIDA GULF COAST UNIVERSITY, priority 2009, published 2011)", "key": {"V. fischeri": {"test_system": "V. fischeri", "assay": "V. fischeri luminescence assay (killing)", "format": "cell-based, Vibrio fischeri", "details": "for killing by biocide with varied detergent: 1 mM NH3, 0.5% EtOH; for decrease in luminescence: 2 mM; for killing by biocide with varied alcohol: 1 mM NH3, 0.05 mM CTAB; for effect of ethanol on V. fischeri luminescence: 1% ethanol alone", "experimental": "V. fischeri was grown overnight until the culture reached log phase and were brightly luminescent. Since bacterial luminescence is an ATP driven event, light emission is directly related to the metabolism and energy charge state of the organism. […] Samples at given concentrations were added to V. fischeri in a 24 well plate. A small amount was placed in a 96 well plate, agitated, and the luminescence was read in a TECAN well plate reader. For all figures, the total time period that V. fischeri was exposed to each biocide or component was between five and fifteen minutes. […] The right side bars represent a final pH of 9. Low readings indicate killing. […] The purpose of this component is to fluidize the cell membrane to collapse the pH gradient."}, "[1]": {"assay": "Effectiveness or lethality of biocide composition with substituted components (test not described)"}, "[2]": {"details": "0.05 mM detergent, pH 9.0 (FIG. 6)"}}, "data": [{"molecule": "CCCCCCCCCCCCCCCC[N+](C)(C)C.[Br-]", "note": "[CTAB, Cetyl trimethylammonium bromide]", "values": [{"measurement": "killing by biocide with varied detergent", "setting": "V. fischeri; [2]", "value": "some degree of killing"}, {"measurement": "killing by biocide with varied detergent", "setting": "V. fischeri; detergent raised to 1 mM, pH 9", "value": "kill effectively"}]}, {"molecule": "CCCCCCCCCCCCCCCC[N+](C)(C)C.[Cl-]", "note": "[CTAC, Cetyl trimetylammonium chloride]", "values": [{"measurement": "killing by biocide with varied detergent", "setting": "V. fischeri; [2]", "value": "some degree of killing"}, {"measurement": "killing by biocide with varied detergent", "setting": "V. fischeri; detergent raised to 1 mM, pH 9", "value": "kill effectively"}]}, {"molecule": "CCCCCCCCCCCCCCCCN", "note": "[HDA, Hexadecylamine]", "values": [{"measurement": "decrease in luminescence", "setting": "V. fischeri; pH 7.5", "value": 11, "unit": "%"}, {"measurement": "decrease in luminescence", "setting": "V. fischeri; pH 9", "value": 29, "unit": "%"}, {"measurement": "effect of HDA on V. fischeri luminescence", "setting": "V. fischeri; HDA alone 0-2 mM, pH 7.5 (FIG. 2)", "value": "little to no effect"}, {"measurement": "effect of HDA on V. fischeri luminescence", "setting": "V. fischeri; HDA alone, higher concentrations (up to 2 mM), pH 9 (FIG. 2)", "value": "slight effect"}]}, {"molecule": "CCCCCCCCCCCCOS(=O)(=O)[O-].[Na+]", "note": "[SDS, Sodium dodecyl sulfate]", "values": [{"measurement": "killing by biocide with varied detergent", "setting": "V. fischeri; [2]", "value": "some degree of killing"}, {"measurement": "killing by biocide with varied detergent", "setting": "V. fischeri; detergent raised to 1 mM, pH 9", "value": "kill effectively"}]}, {"molecule": "CCCCCCCCCCCCCC[N+](C)(C)C.[Br-]", "note": "[TTAB, Tetradecyl trimethyl ammonium bromide]", "values": [{"measurement": "killing by biocide with varied detergent", "setting": "V. fischeri; [2]", "value": "some degree of killing"}, {"measurement": "killing by biocide with varied detergent", "setting": "V. fischeri; detergent raised to 1 mM, pH 9", "value": "kill effectively"}]}, {"molecule": "CCCCCCCCCCCCCC[N+](C)(C)C.[Cl-]", "note": "[TTAC, Tetradecyl trimethyl ammonium chloride]", "values": [{"measurement": "killing by biocide with varied detergent", "setting": "V. fischeri; [2]", "value": "some degree of killing"}, {"measurement": "killing by biocide with varied detergent", "setting": "V. fischeri; detergent raised to 1 mM, pH 9", "value": "kill effectively"}]}, {"molecule": "N", "note": "[ammonia]", "values": [{"measurement": "effect of ammonia on V. fischeri luminescence", "setting": "V. fischeri; ammonia alone, 50 mM or lower, pH 7 or 9, versus pH adjusted H2O control (FIG. 3)", "value": "no difference from the control"}]}, {"molecule": "Nc1ccccc1", "note": "[aniline]", "values": [{"measurement": "lethality of biocide with aniline substituted for HAD", "setting": "[1]; aniline as second hydroxophore component", "value": "very lethal"}]}, {"molecule": "OCc1ccccc1", "note": "[benzyl alcohol]", "values": [{"measurement": "killing by biocide with varied alcohol", "setting": "V. fischeri; 0.5% alcohol, pH 9.0 (FIG. 7)", "value": "some degree of killing"}, {"measurement": "killing by biocide with varied alcohol", "setting": "V. fischeri; alcohol raised to 1%, pH 9", "value": "kill effectively"}, {"measurement": "effectiveness as component in the composition and method of the invention", "setting": "[1]", "value": "effective"}]}, {"molecule": "CCO", "note": "[ethanol]", "values": [{"measurement": "killing by biocide with varied alcohol", "setting": "V. fischeri; 0.5% alcohol, pH 9.0 (FIG. 7)", "value": "some degree of killing"}, {"measurement": "effect of ethanol on V. fischeri luminescence", "setting": "V. fischeri; final pH 7, 5-15 min exposure (FIG. 1)", "value": "damage"}, {"measurement": "effect of ethanol on V. fischeri luminescence", "setting": "V. fischeri; final pH 9, 5-15 min exposure (FIG. 1)", "value": "damage"}, {"measurement": "higher luminescence reading at pH 9 than same concentration at pH 7", "setting": "V. fischeri; 3% ethanol, pH 9 versus pH 7", "value": 40, "unit": "%"}, {"measurement": "killing by biocide with varied alcohol", "setting": "V. fischeri; alcohol raised to 1%, pH 9", "value": "kill effectively"}]}, {"molecule": "CO", "note": "[methanol]", "values": [{"measurement": "killing by biocide with varied alcohol", "setting": "V. fischeri; 0.5% alcohol, pH 9.0 (FIG. 7)", "value": "some degree of killing"}, {"measurement": "killing by biocide with varied alcohol", "setting": "V. fischeri; alcohol raised to 1%, pH 9", "value": "kill effectively"}, {"measurement": "effectiveness as component in the composition and method of the invention", "setting": "[1]", "value": "effective"}]}, {"molecule": "CCCO", "note": "[propanol]", "values": [{"measurement": "killing by biocide with varied alcohol", "setting": "V. fischeri; 0.5% alcohol, pH 9.0 (FIG. 7)", "value": "some degree of killing"}, {"measurement": "killing by biocide with varied alcohol", "setting": "V. fischeri; alcohol raised to 1%, pH 9", "value": "kill effectively"}, {"measurement": "effectiveness as component in the composition and method of the invention", "setting": "[1]", "value": "effective"}]}, {"molecule": "butanol", "values": [{"measurement": "killing by biocide with varied alcohol", "setting": "V. fischeri; 0.5% alcohol, pH 9.0 (FIG. 7)", "value": "some degree of killing"}, {"measurement": "killing by biocide with varied alcohol", "setting": "V. fischeri; alcohol raised to 1%, pH 9", "value": "kill effectively"}, {"measurement": "effectiveness as component in the composition and method of the invention", "setting": "[1]", "value": "effective"}]}]}
